# Publication PMC8370991, “Structural basis for the inhibition of HTLV-1 integration inferred from cryo-EM deltaretroviral intasome structures” (Nature Communications, 2021)
# Read-outs that look alike come from different tables or passages of the source.
# Tests used:
# HTLV-1 = test: Alu-qPCR of integrated provirus in HTLV-1 infected Jurkat cells; assay type: cell-based; conditions: normalized to GAPDH
# Method: The HTLV-1 cell-to-cell infection was performed as previously described; Jurkat T cells were counted and diluted in complete RPMI to a final concentration of 0.25 × 10^6 cells/ml and pre-treated with INSTI drugs (final concentration ranging from 0.2 pM to 2 μM) or DMSO as a control for 24 h. MT-2 cells were resuspended in RPMI at a concentration of 2 × 10^6 cells/ml and subjected to a nonlethal γ-radiation dose of 400 Gy. Cells were resuspended at a concentration of 2 × 10^6 cells/ml in serum-free RPMI supplemented with the corresponding INSTI drug. Co-culture of 0.5 × 10^6 for each cell line was carried out for 16 h, after which cells were washed in PBS and resuspended in 1 ml of depletion buffer (PBS, 0.1% FBS and 2 mM EGTA). MT-2 cells were depleted from the culture by means of anti-CD25 magnetic beads (DynabeadsTM CD25, Thermo Fisher). Depletion efficiency was confirmed via flow cytometry as described previously. Jurkat cells were cultured for 2 weeks in complete RPMI supplemented with the drugs and genomic DNA was extracted (DNeasy kit, Qiagen) and stored at −20 °C for subsequent analysis. All the experiments were done in triplicate.
# The PVL was measured as previously described[9],[53],[54]. Jurkat genomic DNA was quantified and diluted to a concentration of 5 ng/μL. Real-time qPCR analysis were conducted on 20 ng of gDNA to measure the level of HTLV-1 tax and gapdh genes (Supplementary Table 5). For the standard curve, the gDNA from an HTLV-1 naturally infected T-cell clone (clone 11.50, courtesy of professor Charles Bangham), which has one copy of tax and two of gapdh, was used. The integrated provirus copy number was calculated as follows: (tax copy numbers)/(2×gapdh copy number)[53], and normalised to the DMSO-treated control which was set to 100%. The PVL data were fitted to a dose–response curve in Prism 7 and the EC50 was calculated. Alu-PCR was performed as previously described in ref. [55]. In brief, the first PCR reaction was done with Phusion polymerase starting from 80 ng of gDNA using the ALU-specific primers (Alu-F/Gag-R). The nested PCR was run diluting the amplificated product 1:50. The reaction was done as a qPCR using Gag-specific primers (Gag-R/Gag-F) and the Luna SYBR dye reaction mix (New England Biolabs). The integrated provirus copy numbers were normalised to GAPDH and Jurkat cells treated with DMSO and infected with HTLV-1 were set to 100%. Experiments were done in triplicate. […]
# Supplementary Figure 6 | Integrated provirus was quantified by Alu-qPCR.
# Values were normalized to GAPDH. Uninfected represents uninfected Jurkat cells, acting as negative control. Condition without any drug present (DMSO) was set as 100%. Mean values and standard deviations are shown for n = three biologically independent experiments. P-values were calculated with respect to the DMSO control using the unpaired t-test with Welch’s correction in Prism 9. P-values are two-sided.
# recombinant HTLV-1 IN = biological target: T1, recombinant HTLV-1 IN (Human T-cell leukemia virus 1, UniProt P03362); test: In vitro integration strand transfer assay with HTLV-1 IN; assay type: biochemical; conditions: for HTLV-1 IN strand transfer activity (No drug = 100): INSTI at 634 nM
# T1 construct: made in house
# Method: We used in vitro strand transfer assays to screen this small molecule library for its ability to inhibit recombinant HTLV-1 IN. The enzyme was incubated with an oligonucleotide vDNA donor mimic in the presence or absence of INSTIs and was allowed to react with a supercoiled plasmid mimicking target DNA. During the screening, the concentration of each compound was adjusted to 634 nM to provide optimal resolution of efficacy between well- and under-performing compounds.
# The donor vDNA that mimics the 3′-processed LTR of HTLV-1 or STLV-1 DNA was preassembled by annealing the U5_S20Q_UP and U5_S20Q_B or MarB43_U5_S30UP or MarB43_U5_S30B oligonucleotides, respectively (Supplementary Table 4) in 100 mM Tris pH 7.4, 400 mM NaCl. For HTLV-1 IN, strand transfer reactions were conducted in a solution of 24.3 mM PIPES pH 6.0, 138.4 mM NaCl, 16.6 mM MgCl2, 5.8 μM ZnCl2, 12.7 mM DTT, 0.53 μM donor DNA and 4 μg of HTLV-1 IN[9],[39]. In brief, the reaction was incubated at RT for 15 min in the presence of an INSTI or dimethyl sulfoxide (DMSO) control and the reaction was started by the addition of 300 ng of pGEM-9Zf(-) supercoiled plasmid DNA. The reaction was incubated for 1 h at 37 °C and stopped by adding 0.5% SDS and 25 mM ethylenediaminetetraacetic acid (EDTA), pH 8.0.
# Proteins were degraded by incubation with 30 μg of proteinase K (Roche) at 37 °C for 1 h. DNA was precipitated at −20 °C overnight in the presence of ethanol supplemented with 20 μg of glycogen and then resuspended in 1.5× agarose loading dye. The DNA products were separated by electrophoresis through 1.5% agarose gel and stained with ethidium bromide and imaged using the BioRad GelDox XR + imager. The data were analysed and the IC50 calculated as previously described. In brief, the DNA band that corresponds to the concerted integration product was quantified by densitometry in ImageLab 4.1 (Bio-Rad). All experiments were done in triplicate. Quantified data points were fitted to dose–response curves in Prism 9. The cumulative standard deviation for each drug was calculated as an average of the upper limit and lower limit values: Lowerlimit=IC50/10^logSE(IC50) Upperlimit=IC50×10^logSE(IC50)
# HIV-1 = HIV-1 infection model, read-out: HIV-1 EC50 ± stdev, cited from earlier work
# [1] = Replicate 1, read-out: HTLV-1 IN strand transfer IC50
# [2] = Replicate 2, read-out: HTLV-1 IN strand transfer IC50
# [3] = Replicate 3, read-out: HTLV-1 IN strand transfer IC50
# [4] = integrase strand-transfer drug titration, n = 3, read-out: HTLV-1 IC50 ± stdev
# T1 sequence (P03362 1168-1462): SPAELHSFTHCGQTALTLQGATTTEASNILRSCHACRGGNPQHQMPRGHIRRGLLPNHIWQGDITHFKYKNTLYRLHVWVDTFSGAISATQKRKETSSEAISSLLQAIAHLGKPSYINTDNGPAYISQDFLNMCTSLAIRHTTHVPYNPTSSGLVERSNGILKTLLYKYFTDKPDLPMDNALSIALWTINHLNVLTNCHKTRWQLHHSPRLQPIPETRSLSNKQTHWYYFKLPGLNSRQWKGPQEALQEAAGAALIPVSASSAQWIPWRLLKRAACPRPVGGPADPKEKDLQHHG
SMILES,Integrated provirus by Alu-qPCR (DMSO = 100%) (HTLV-1; Replicate 1),Integrated provirus by Alu-qPCR (DMSO = 100%) (HTLV-1; Replicate 2),Integrated provirus by Alu-qPCR (DMSO = 100%) (HTLV-1; Replicate 3),HTLV-1 IN strand transfer activity (No drug = 100) (recombinant HTLV-1 IN; Replicate 1),HTLV-1 IN strand transfer activity (No drug = 100) (recombinant HTLV-1 IN; Replicate 2),HTLV-1 IN strand transfer activity (No drug = 100) (recombinant HTLV-1 IN; Replicate 3),IC50 (recombinant HTLV-1 IN; [1]),IC50 (recombinant HTLV-1 IN; [2]),IC50 (recombinant HTLV-1 IN; [3]),IC50 (recombinant HTLV-1 IN; [4]),EC50 (HIV-1; supplementary ref 14),EC50 (HIV-1; supplementary ref 1),IC50 compared with that of RAL (recombinant HTLV-1 IN; dose-response strand transfer assays)
"COC(=O)CCc1cnc2c(c1)c(N)c(C(=O)NCc1ccc(F)cc1F)c(=O)n2O [XZ434, methyl 3-(5-amino-6-((2,4-difluorobenzyl)carbamoyl)-8-hydroxy-7-oxo-7,8-dihydro-1,8-naphthyridin-3-yl)propanoate]",0.3355%,0.8375%,1.324e-5%,20.5794%,19.7322%,15.311%,0.174 µM,0.217 µM,0.231 µM,0.204 ± 0.0341 µM,0.00067 ± 0.00015 µM,,
"Nc1c(C(=O)NCc2ccc(F)cc2F)c(=O)n(O)c2ncc(CCCCCO)cc12 [XZ419, 4-amino-N-(2,4-difluorobenzyl)-1-hydroxy-6-(5-hydroxypentyl)-2-oxo-1,2-dihydro-1,8-naphthyridine-3-carboxamide]",,,,14.8861%,26.7311%,21.3921%,0.173 µM,0.249 µM,0.269 µM,0.226 ± 0.021 µM,,0.0013 ± 0.0002 µM,
"Nc1c(C(=O)NCc2ccc(F)cc2F)c(=O)n(O)c2ncccc12 [XZ384, 4-amino-N-(2,4-difluorobenzyl)-1-hydroxy-2-oxo-1,2-dihydro-1,8-naphthyridine-3-carboxamide]",4.1902%,0.144%,1.628%,12.8154%,24.1903%,23.5902%,0.142 µM,0.268 µM,0.121 µM,0.21 ± 0.034 µM,,0.0011 ± 0.0007 µM,
"Nc1c(C(=O)NCc2ccc(F)cc2F)c(=O)n(O)c2ncc(CCCCCCO)cc12 [XZ426, 4-amino-N-(2,4-difluorobenzyl)-1-hydroxy-6-(6-hydroxyhexyl)-2-oxo-1,2-dihydro-1,8-naphthyridine-3-carboxamide]",,,,14.449%,19.5833%,19.9322%,0.159 µM,0.169 µM,0.175 µM,0.163 ± 0.0279 µM,,0.0023 ± 0.0006 µM,
"O=C(NCc1ccc(F)cc1F)c1c(O)c2cccnc2n(O)c1=O [XZ351, N-(2,4-difluorobenzyl)-1,4-dihydroxy-2-oxo-1,2-dihydro-1,8-naphthyridine-3-carboxamide]",,,,30.0691%,57.1529%,59.6295%,,,,,,,
"Nc1c(C(=O)NCc2ccc(F)cc2F)c(=O)n(O)c2ncc(-c3ccccc3)cc12 [XZ420, 4-amino-N-(2,4-difluorobenzyl)-1-hydroxy-2-oxo-6-phenyl-1,2-dihydro-1,8-naphthyridine-3-carboxamide]",,,,20.0015%,29.6468%,21.6983%,0.276 µM,0.499 µM,0.466 µM,0.411 ± 0.093 µM,,,no significant improvement over RAL
